Source: patent US5593970A, “Heterocyclic anthracycline analogs” (priority 1994, dated 1997)
Read-outs that look alike come from different tables or passages of the source.

Legend:
SKOV3 = experiment: Microculture tetrazolium assay; type: cell-based; details: Homo sapiens, SK-OV-3, SKOV3; read-out: IC50
CNS = experiment: NCI assay, average per cancer type; details: Homo sapiens; for CC50: 48 h, read-out: Average LOG10 LC50; for GI50: read-out: Average LOG10 GI50
Ovarian = experiment: NCI assay, average per cancer type; details: Homo sapiens; for CC50: 48 h, read-out: Average LOG10 LC50; for GI50: read-out: Average LOG10 GI50
LOX = experiment: Microculture tetrazolium assay; type: cell-based
tumor cell lines = experiment: NCI sulforhodamine B assay, all cell lines; details: for CC50 / IC100 / GI50: Homo sapiens; for CC50 / IC100: 48 h; for CC50: read-out: Log10 LC50, Mean / MG-MID, all cell lines (converted); for IC100: read-out: Log10 TGI, Mean / MG-MID, all cell lines; for GI50: read-out: Log10 GI50, Mean / MG-MID, all cell lines (converted)
Renal = experiment: NCI assay, average per cancer type; details: Homo sapiens; for CC50: 48 h, read-out: Average LOG10 LC50; for GI50: read-out: Average LOG10 GI50
Colon = experiment: NCI assay, average per cancer type; details: Homo sapiens; for CC50: 48 h, read-out: Average LOG10 LC50; for GI50: read-out: Average LOG10 GI50
T47D = experiment: Microculture tetrazolium assay; type: cell-based; details: Homo sapiens, read-out: IC50
NSC Lung = experiment: NCI assay, average per cancer type; details: Homo sapiens; for CC50: 48 h, read-out: Average LOG10 LC50; for GI50: read-out: Average LOG10 GI50
HT29 = experiment: Microculture tetrazolium assay; type: cell-based; details: Homo sapiens, HT-29, HT29; read-out: IC50
Melanoma = experiment: NCI assay, average per cancer type; details: Homo sapiens; for GI50: read-out: Average LOG10 GI50; for CC50: read-out: Average LOG10 LC50
SKVLB = experiment: Microculture tetrazolium assay; type: cell-based; details: for VLB/OV3: IC50 ratio SKVLB/SKOV3; for IC50: SKVLB, read-out: IC50
solid tumors = experiment: NCI assay, mean potency in solid tumors; details: Homo sapiens; for GI50: read-out: Average LOG10 GI50, Mean Potency in solid tumors; for CC50: 48 h, read-out: Average LOG10 LC50, Mean Potency in solid tumors
Leukemia = experiment: NCI assay, average per cancer type; details: for CC50: 48 h, read-out: Average LOG10 LC50; for GI50: read-out: Average LOG10 GI50
SC Lung = experiment: NCI assay, average per cancer type; details: Homo sapiens; for CC50: 48 h, read-out: Average LOG10 LC50; for GI50: read-out: Average LOG10 GI50

Row | SMILES | IC50 (SKOV3) | CC50 (CNS) | GI50 (CNS) | CC50 (Ovarian) | GI50 (Ovarian) | CC50 (tumor cell lines) | IC100 (tumor cell lines) | GI50 (tumor cell lines) | CC50 (Renal) | GI50 (Renal) | CC50 (Colon) | GI50 (Colon) | CC50 (NSC Lung) | GI50 (NSC Lung) | GI50 (Melanoma) | GI50 (solid tumors) | CC50 (Leukemia) | GI50 (Leukemia) | CC50 (SC Lung) | GI50 (SC Lung) | further results
1 | CCOC(=O)[C@@H]1CC2=C(C(=O)c3c(cc4ccccc4c3OC(C)=O)C2=O)[C@@H](O)O1 (relative stereo) [BCH-657, Ethyl[1-hydroxy-11-acetoxy-5,12-dioxo-3,4-5,12-tetrahydroanthraceno(2,3-C)pyran-3-yl]formate] | 6.8 µM | 13.2 µM | 1.86 µM | 17.4 µM | 1.7 µM | 26.3 µM | 4.07 µM | 1.17 µM | 12 µM | 1.32 µM | 13.5 µM | 0.794 µM | 11.5 µM | 1.12 µM | 1.35 µM | 1.29 µM | > 100 µM | 0.437 µM | > 100 µM | 1.26 µM | IC50 (LOX): 9.3 µM; antiproliferative and cytotoxic activity in words (tumor cell lines): strong antiproliferative (GI50) and potent cytotoxic (LC50) activities; IC50 (T47D): 13.1 µM; IC50 (HT29): 2.28 µM; VLB/OV3 (SKVLB): 0.99; IC50 (SKVLB): 6.75 µM
2 | COC(=O)[C@@H]1CC2=C(C(=O)c3cc4ccccc4cc3C2=O)[C@@H](O[C@H]2C[C@H](NC(=O)C(F)(F)F)[C@H](O)[C@H](C)O2)O1 [BCH-671] | 4.69 µM | 42.7 µM | 4.27 µM | 33.9 µM | 3.63 µM | 29.5 µM | 7.76 µM | 2.88 µM | 23.4 µM | 2.82 µM | 15.8 µM | 1.91 µM | 30.2 µM | 4.57 µM | 2.09 µM | 2.95 µM | > 100 µM | 1.82 µM | 55 µM | 2.51 µM | IC50 (LOX; read-out: IC50): 2.61 µM; IC50 (T47D): 2.86 µM; IC50 (HT29): 4.23 µM; CC50 (Melanoma; 48 h): 21.4 µM; VLB/OV3 (SKVLB): 1.32; IC50 (SKVLB): 6.19 µM; CC50 (solid tumors): 29.5 µM
3 | CCOC(=O)C1CC2=C(C(=O)c3c(c(O)c4ccccc4c3OC)C2=O)C(O[C@H]2C[C@H](NC(=O)C(F)(F)F)[C@H](O)[C@H](C)O2)O1 (mixture of isomers) [BCH-689, (1'S,1R,3S) and (1'S,1S,3R) Ethyl (6-hydroxy-11-methoxy-5,12-dioxo-1-(3,-trifluoroacetamido-1-daunosaminyl)-3,4,5,12-tetrahydroanthraceno[2,3-c]pyran-3-yl)formate] | 3.79 µM | 40.7 µM | 12.9 µM | 42.7 µM | 11.5 µM | 45.7 µM | 26.3 µM | 12.6 µM | 37.2 µM | 11.2 µM | 38.9 µM | 11.2 µM | 41.7 µM | 13.5 µM | 12.6 µM | 12 µM | < 100 µM | 15.5 µM | 42.7 µM | 11.5 µM | CC50 (Melanoma; 48 h): 41.7 µM; VLB/OV3 (SKVLB): 1.06; IC50 (SKVLB): 4.02 µM
4 | CC(=O)C1Cc2c(O)c3c(c(O)c2CO1)C(=O)c1ccccc1C3=O (centres unmarked) [BCH-688, Methyl-(5,12-dihydroxy-6,11-dioxo-3,4,6,11-tetrahydroanthraceno-[2,3-c]pyran-3-yl)ketone] | 100 µM | > 100 µM | 53.7 µM | > 100 µM | 75.9 µM | 100 µM | 97.7 µM | 75.9 µM | > 100 µM | > 100 µM | > 100 µM | > 100 µM | > 100 µM | > 100 µM | > 100 µM | 52.5 µM | > 100 µM | 36.3 µM | > 100 µM | > 100 µM | IC50 (LOX; read-out: IC50): 100 µM; IC50 (T47D): 100 µM; IC50 (HT29): 100 µM; CC50 (Melanoma; 48 h): > 100 µM; IC50 (SKVLB): 100 µM; CC50 (solid tumors): > 100 µM
5 | CCOC(=O)C1Cc2c(O)c3c(c(O)c2CO1)C(=O)c1ccccc1C3=O (centres unmarked) [BCH-650] | 100 µM | > 100 µM | 45.7 µM | > 100 µM | > 100 µM | 100 µM | 100 µM | 79.4 µM | > 100 µM | 52.5 µM | > 100 µM | > 100 µM | > 100 µM | > 100 µM | – | 52.5 µM | > 100 µM | 61.7 µM | > 100 µM | > 100 µM | IC50 (LOX; read-out: IC50): 100 µM; IC50 (T47D): 100 µM; IC50 (HT29): 91.1 µM; GI50 (Melanoma; 48 h): > 100 µM; CC50 (Melanoma; 48 h): > 100 µM; IC50 (SKVLB): 100 µM; CC50 (solid tumors): > 100 µM
6 | COC(=O)[C@@H]1CC2=C(C(=O)c3cc4ccccc4cc3C2=O)[C@H](O[C@H]2C[C@H](NC(=O)C(F)(F)F)[C@H](O)[C@H](C)O2)O1 [BCH-672] | – | 31.6 µM | 4.68 µM | 25.7 µM | 3.16 µM | 26.9 µM | 7.94 µM | 2.63 µM | 24 µM | 4.17 µM | 28.2 µM | 1.66 µM | 27.5 µM | 3.55 µM | 1.55 µM | 2.75 µM | 42.7 µM | 1.29 µM | 39.8 µM | 2.04 µM | CC50 (Melanoma; 48 h): 21.4 µM; CC50 (solid tumors): 27.5 µM
